The text below walks through data of publication PMC12392461, “Beyond Estrogenicity: A Comparative Assessment of Bisphenol A and Its Alternatives in In Vitro Assays Questions Safety of Replacements” (Environmental Science & Technology, 2025).

The test system of series [1] is SH-SY5Y cells. Put plainly: cells. Conditions: for EC10: Homo sapiens, SH-SY5Y; for Specificity ratio (SRbaseline) SRNOI: against baseline cytotoxicity; for Specificity ratio (SRcytotoxicity) SRNOI: against experimental cytotoxicity; for Relative effect potency REPNOI: relative to BPA; for EC10, linear: linear model. The source says: All bioassay media components and the ERα-UAS-bla GripTite and PPARγ-UAS-bla cells were obtained from Thermo Fisher Scientific (Waltham, MA, USA). AREc32 reporter gene cells based on MCF7 were provided by C. Roland Wolf (Cancer Research UK); AhR CALUX cells (H4L7.5c2 derived from H4IIe) were provided by Michael Denison (UC Davis, USA); and SH-SY5Y cells were purchased from Sigma-Aldrich.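 For Relative effect potency REPNOI: EC10 of BPA divided by EC10 of the test compound so values above 1 mean more potent.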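 For Specificity ratio (SRbaseline) SRNOI: ratio of predicted baseline cytotoxicity IC10 to the neurite outgrowth inhibition EC10.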
Cell culture conditions and bioassay protocols including response detection are provided in Text S2.1–2.4 and Table S3. − Cell viability was determined from cell confluency using an IncuCyte S3 Live-Cell Analysis System (Sartorius AG, Essen, Germany) before and after exposure, except for SH-SY5Y cells (live–dead staining with Nuclear Green LcS1 and propidium iodide, Abcam, UK). For metabolic activation experiments, cell viability was assessed using the ToxBLAzer DualScreen Kit (Thermo Fisher Scientific) to capture the remaining toxicity in ERα-UAS-bla GripTite after treatment with the aCYP catalyst (details in Text S2.4).
For ARE, the concentration that triggered an induction ratio of 1.5 (ECIR1.5) was used as the benchmark value, as detailed in Text S2.5. IC10 values also served as a threshold for data analysis in all assays; only concentrations below IC10 were considered when deriving EC10 or ECIR1.5. […]
S2: Cell culture and bioassays
S2.1: Cell Culturing Conditions
All suppliers and sources are given in detail in SI-Excel S3. The bioassay media for the different assays were prepared as follows: Assay medium for ER alpha-UAS-bla GripTite (ERα) and PPAR gamma-UAS-bla 293H (PPARγ) was prepared with 98% Opti-MEM, supplemented with 2% charcoal-stripped FBS, and 100 U/mL penicillin-streptomycin. MitoOxTox and AhR assay medium was comprised of 90% DMEM with GlutaMAX, supplemented with 10% FBS, and 100 U/mL penicillin-streptomycin. Neurotoxicity assay medium consisted of the neurobasal […]
(1 picture or pasted object on this page, not shown here) […]
medium, supplemented with 2% B-27 Supplement and 2 mM GlutaMAX Supplement. SH - SY5Y cells were differentiated with 10 µM all-trans retinoic acid prior to the assay.
S2.2: Cell Seeding and Incubation. For all bioassays, cell suspensions in the respective assay medium were dispensed into each well of 384-well plates using a MultiFlo Dispenser (Biotek, (now Agilent), Winooski, VT, U.S.). After seeding, the plates were incubated at 37° C and 5% CO₂ for […]. The final cell densities and plate types were as follows: Black poly-D-lysine coated 384-well plates (Product No. 354663, Corning Inc., NYC, U.S.) were used for PPARγ:
6500 cells/well, ERα: 5000 cells/well. White 384-well plates with a clear bottom (Product No.
781098, Greiner, Kremsmünster, Austria) were utilized for the MitoOxTox assay: 2650

A short description of series [2]: Abiotic CYP (aCYP) oxidation, remaining parent compound (Cparent-Ratio). Conditions: for Cparent-Ratio Rep.1 %: Table S9, replicate 1; for Cparent-Ratio Rep.2 %: Table S9, replicate 2.
Where [3] appears, read: read-out: EC10, linear transformed.
The mark [4] stands for this setting: NOI bioassay, dosing range all, log-logistic model.
The mark [5] stands for this setting: Table S9, loss of parent after aCYP oxidation.
[6] abbreviates: Table S9, mean of two replicate experiments.
Where [7] appears, read: Table S9, replicate 1, as fraction.
Setting [8] is: Table S9, replicate 2, as fraction.
[9] abbreviates: Table S11, measured simultaneously with bioassay.

Where two headings read alike, the source gives them in different places.

For `CC(C)(c1ccc(OCC2CO2)cc1)c1ccc(OCC2CO2)cc1` (stereo not shown) [BADGE, Bisphenol A diglycidyl ether], the EC10 was 3.81e-05 M in series [1] (read-out: EC10, NOI); 3.81e-05 M in series [1] (read-out: EC10, NOI (M)); 3.69e-05 M in series [1] (read-out: EC10, linear); 4.5e-05 M in series [1] (setting [3]); 3.8e-05 M in series [1] (read-out: logEC10). Further, the “Specificity ratio (SRbaseline) SRNOI” value in series [1] came to 0.48. Besides, the “Specificity ratio (SRcytotoxicity) SRNOI” value in series [1] was determined as 1.50. Also, in series [1], the “Relative effect potency REPNOI” value stood at 1.33.

Turning to `CC(C)CC(C)(c1ccc(O)cc1)c1ccc(O)cc1` [BP-MIBK, 4,4'-(1,3-Dimethylbutylidene)diphenol], the EC10 in series [1] (setting [3]) was determined as 5.05e-05 M. For the same compound, the “EC10, linear” value in series [1] (NOI bioassay, dosing range all) is recorded as “no effect”. The logEC10 result in series [1] (setting [4]) is on record as “no effect”.

For `Oc1ccc(C(c2ccc(O)cc2)(C(F)(F)F)C(F)(F)F)cc1` [BPAF, 4,4'-(1,1,1,3,3,3-Hexafluoropropane-2,2-diyl)diphenol], the EC10 in series [1] (read-out: EC10, NOI) was 1.62e-05 M; in series [1] (read-out: EC10, NOI (M)), 1.62e-05 M; in series [1] (read-out: EC10, linear), 1.93e-05 M; in series [1] (setting [3]), 2.61e-05 M; in series [1] (read-out: logEC10), 1.62e-05 M.

On to `CC(c1ccccc1)(c1ccc(O)cc1)c1ccc(O)cc1` [BPAP, 4,4'-(1-Phenylethylidene)bisphenol], for which the EC10 in series [1] (read-out: EC10, NOI) was 5.12e-05 M; in series [1] (read-out: EC10, NOI (M)) it was 5.12e-05 M; in series [1] (read-out: EC10, linear), 4.83e-05 M; in series [1] (setting [3]), 5.09e-05 M; in series [1] (read-out: logEC10) it was 5.13e-05 M.

With `CC(c1ccc(O)cc1)c1ccc(O)cc1` [BPE, 4,4′-Ethylidenbisphenol], the EC10 is 0.000114 M in series [1] (read-out: EC10, NOI); 0.000114 M in series [1] (read-out: EC10, NOI (M)); 0.000136 M in series [1] (read-out: EC10, linear); 0.000235 M in series [1] (setting [3]); 0.000115 M in series [1] (read-out: logEC10).

In the case of `CC(C)(c1ccc(O)c(-c2ccccc2)c1)c1ccc(O)c(-c2ccccc2)c1` [BPPH, 2,2-Bis(2-hydroxy-5-biphenylyl)propane], the “% Loss” value in series [2] (setting [5]) and in series [2] (Table S11) was 22% each time. For the same compound, the “Cparent-Ratio Mean” value in series [2] (setting [6]) and in series [2] (setting [9]) was 0.78 throughout. Moreover, in series [2], the “Cparent-Ratio Rep.1 %” value is 89.82%. For the same compound, the entries for the “Cparent-Ratio Rep.1” value in series [2] (setting [7]) and in series [2] (setting [9]) were 0.90 and 0.78, respectively. In series [2], the “Cparent-Ratio Rep.2 %” value was 66.60%. In addition, the “Cparent-Ratio Rep.2” value in series [2] (setting [8]) was found to be 0.67; in series [2] (setting [9]), 0.78. Further, the EC10 in series [1] (read-out: EC10, linear) stood at 9.84e-06 M; in series [1] (setting [3]), 2.12e-05 M. The logEC10 entry in series [1] (setting [4]) is recorded as “no effect”.

`O=S(=O)(c1ccc(O)cc1)c1ccc(OCc2ccccc2)cc1` [BPS-MPE, 4-[4-(benzyloxy)benzenesulfonyl]phenol]: the “% Loss” value in series [2] (setting [5]) is recorded as 0.295%. Besides, the “Cparent-Ratio Mean” value in series [2] (setting [6]) is given as 1.00. Also, the “Cparent-Ratio Rep.1 %” value in series [2] is reported as 118.51%. Besides, the “Cparent-Ratio Rep.1” value in series [2] (setting [7]) is 1.19. The “Cparent-Ratio Rep.2 %” value in series [2] was found to be 80.90%. In addition, the “Cparent-Ratio Rep.2” value in series [2] (setting [8]) was 0.81. In addition, the EC10 in series [1] (read-out: EC10, NOI) was 0.000247 M; in series [1] (read-out: EC10, NOI (M)) it was 0.000247 M; in series [1] (read-out: EC10, linear), 0.000638 M; in series [1] (setting [3]) it was 0.000247 M; in series [1] (read-out: logEC10), 0.000245 M. The “Specificity ratio (SRbaseline) SRNOI” value in series [1] was found to be 0.11. The “Relative effect potency REPNOI” value in series [1] came to 0.21.

For the compound `Oc1ccc(C2(c3ccc(O)cc3)CCCCC2)cc1` [BPZ, 1,1'-Bis(4-hydroxyphenyl)cyclohexane], in series [2] (setting [5]), the “% Loss” value was found to be 12%. Besides, the EC10 in series [1] (read-out: EC10, NOI) was 3.05e-05 M; in series [1] (read-out: EC10, NOI (M)), 3.05e-05 M; in series [1] (read-out: EC10, linear), 3.52e-05 M; in series [1] (setting [3]), 4.31e-05 M; in series [1] (read-out: logEC10) it was 3.02e-05 M.

`Cc1ccc(S(=O)(=O)NC(=O)Nc2cccc(OS(=O)(=O)c3ccc(C)cc3)c2)cc1` [Pergafast, N-(p-toluenesulfonyl)-N'-(3-(p-toluenesulfonyloxy)phenyl)urea]: the “reduction of C parent after aCYP oxidation” value in series [2] (15 min, 30 °C) stood at 44%. Besides, the “% Loss” value in series [2] (setting [5]) was determined as 44%; in series [2] (Table S11), 32%. Also, the “Cparent-Ratio Mean” value came out at 0.56 in series [2] (setting [6]) and 0.68 in series [2] (setting [9]). For the same compound, in series [2], the “Cparent-Ratio Rep.1 %” value is 66.98%. The “Cparent-Ratio Rep.1” value in series [2] (setting [7]) is 0.67; in series [2] (setting [9]) it was 0.75. Also, the “Cparent-Ratio Rep.2 %” value in series [2] was 45.82%. The “Cparent-Ratio Rep.2” value in series [2] (setting [8]) is reported as 0.46; in series [2] (setting [9]), 0.61. Besides, the EC10 in series [1] (read-out: EC10, NOI) was 1.25e-05 M; in series [1] (read-out: EC10, NOI (M)), 1.25e-05 M; in series [1] (read-out: EC10, linear), 1.25e-05 M; in series [1] (setting [3]) it was 1.52e-05 M; in series [1] (read-out: logEC10), 1.51e-05 M. Besides, the “Specificity ratio (SRbaseline) SRNOI” value in series [1] stood at 8.80. For the same compound, the “Specificity ratio (SRcytotoxicity) SRNOI” value in series [1] is 3.95. Besides, the “Relative effect potency REPNOI” value in series [1] was 4.06.

Consider `CC(C)(c1cc(Br)c(O)c(Br)c1)c1cc(Br)c(O)c(Br)c1` [TBBPA, 3,3',5,5'-Tetrabromobisphenol A], for which the “% Loss” value in series [2] (setting [5]) is recorded as 8%. Further, the logEC10 entry in series [1] is listed as “no effect”. For the same compound, the “EC10, linear” value in series [1] (NOI bioassay, dosing range all) was “no effect”.

Take `CC(C)(c1cc(Cl)c(O)c(Cl)c1)c1cc(Cl)c(O)c(Cl)c1` [TCBPA, 2,2',6,6'-Tetrachlorobisphenol A]: the EC10 is 0.000322 M in series [1] (read-out: EC10, NOI); 0.000322 M in series [1] (read-out: EC10, NOI (M)); 0.000322 M in series [1] (setting [3]); 0.000324 M in series [1] (read-out: logEC10). The “EC10, linear” value in series [1] (NOI bioassay, dosing range all) is “masked by cytotoxicity”.

For the compound `Cc1cc(Cc2cc(C)c(O)c(C)c2)cc(C)c1O` [TMBPF, Bis(3,5-dimethyl-4-hydroxyphenyl)methane], the results for the “% Loss” value in series [2] (setting [5]) and in series [2] (Table S11) were 31% and 56%, respectively. The “Cparent-Ratio Mean” value in series [2] (setting [6]) worked out at 0.69; in series [2] (setting [9]), 0.44. Further, the “Cparent-Ratio Rep.1 %” value in series [2] is reported as 58.94%. Also, the “Cparent-Ratio Rep.1” value was found to be 0.59 in series [2] (setting [7]) and 0.29 in series [2] (setting [9]). For the same compound, the “Cparent-Ratio Rep.2 %” value in series [2] is given as 79.26%. Moreover, the “Cparent-Ratio Rep.2” value is reported as 0.79 in series [2] (setting [8]) and 0.59 in series [2] (setting [9]). Also, the EC10 in series [1] (read-out: EC10, NOI) is 4.28e-06 M; in series [1] (read-out: EC10, NOI (M)) it was 4.28e-06 M; in series [1] (read-out: EC10, linear) it was 5.06e-06 M; in series [1] (setting [3]), 5.49e-06 M; in series [1] (read-out: logEC10), 4.27e-06 M. Moreover, in series [1], the “Specificity ratio (SRbaseline) SRNOI” value is 2.18. Besides, the “Specificity ratio (SRcytotoxicity) SRNOI” value in series [1] was found to be 2.97. Also, in series [1], the “Relative effect potency REPNOI” value is reported as 11.87.

For `CC1(C)[C@H](O)C(C)(C)[C@H]1O` [Trans TMCD], the EC10 is 0.00531 M in series [1] (read-out: EC10, linear); 0.00415 M in series [1] (setting [3]); 0.00417 M in series [1] (read-out: logEC10).
